The target of series [1] is T1, human PPARα (Homo sapiens, UniProt Q07869).
T1 construct: expressed in transfected cells; host or cells: HEK-293
T1 sequence (Q07869 239-466 limits assumed): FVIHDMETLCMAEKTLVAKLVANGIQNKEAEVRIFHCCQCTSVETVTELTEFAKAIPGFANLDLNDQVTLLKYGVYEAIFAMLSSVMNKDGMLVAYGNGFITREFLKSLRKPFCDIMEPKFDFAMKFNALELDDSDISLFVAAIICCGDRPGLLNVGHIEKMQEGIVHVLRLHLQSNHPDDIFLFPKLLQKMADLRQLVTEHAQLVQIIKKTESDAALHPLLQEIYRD
As to the kind of experiment: in vitro PPARα transactivation, GAL4-LBD luciferase reporter in HEK-293 cells. The series is classed as cell-based. Particulars: luciferase fold activation relative to untreated cells. The text has this: A number of derivatives of the invention have shown PPAR agonist activity. The following procedure was used for in vitro determination of PPARα, γ and δ transactivation.
(§1) The ligand binding domain of human PPARγ1, PPARα or PPARδ was fused to the C-terminal end of DNA binding domain of yeast transcription factor GAL4 in eukaryotic expression vector. HEK-293 cells were transfected with either of these plasmids, reporter plasmid pGL2 (Gal4×5)˜SV40˜Luc and pAdVantage using superfect (Qiagen, Germany) for 3 hours. pAdVantage vector was used to enhance the luciferase expression. 48 hours after transfection, the cells were harvested and incubated overnight with or without test compounds at different concentrations. The cells were lysed and luciferase activity was measured using the LucLite kit (Packard USA). Luciferase activity was measured as fold activation relative to untreated cells.
Background: Reporter assays use an easily measured gene product as a stand-in for the process of interest.

In series [2] the target is T2, human PPARδ (Homo sapiens, UniProt Q03181).
T2 construct: expressed in transfected cells; host or cells: HEK-293
T2 sequence (Q03181 211-439 limits assumed): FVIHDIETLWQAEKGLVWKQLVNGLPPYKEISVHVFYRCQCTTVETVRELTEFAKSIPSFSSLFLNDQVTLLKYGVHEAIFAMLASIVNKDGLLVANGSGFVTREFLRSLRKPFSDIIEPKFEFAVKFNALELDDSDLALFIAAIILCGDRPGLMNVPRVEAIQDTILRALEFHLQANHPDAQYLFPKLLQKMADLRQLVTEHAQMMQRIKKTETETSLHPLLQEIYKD
Briefly: in vitro PPARδ transactivation, GAL4-LBD luciferase reporter in HEK-293 cells. It counts as cell-based. Particulars: luciferase fold activation relative to untreated cells. Here is the method: (§2) The following procedure was used for in vitro determination of PPARα, γ and δ transactivation.
as §1

Series [3] addresses T3, human PPARγ1 (Homo sapiens, UniProt P37231).
T3 construct: expressed in transfected cells; host or cells: HEK-293
T3 sequence (P37231 238-503 limits assumed): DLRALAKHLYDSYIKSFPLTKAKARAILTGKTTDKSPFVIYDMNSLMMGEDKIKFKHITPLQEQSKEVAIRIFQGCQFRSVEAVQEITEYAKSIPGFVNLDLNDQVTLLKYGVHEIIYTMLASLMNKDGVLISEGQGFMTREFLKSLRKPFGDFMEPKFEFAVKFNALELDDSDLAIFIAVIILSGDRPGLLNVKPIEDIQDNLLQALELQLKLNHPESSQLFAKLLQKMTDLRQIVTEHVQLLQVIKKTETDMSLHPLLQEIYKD
Briefly: in vitro PPARγ transactivation, GAL4-LBD luciferase reporter in HEK-293 cells. It counts as cell-based. Particulars: luciferase fold activation relative to untreated cells. As for the experimental part:
as §2, §1

Series [4] concerns Swiss albino mice. As to the kind of experiment: plasma triglyceride lowering activity in Swiss albino mice. Particulars: 3.0 mg/kg orally for 6 days. It counts as in vivo. As for the experimental part:
The properties of the derivatives of the invention were also evaluated in vivo. The following procedure was used to determine plasma triglyceride and total cholesterol lowering activity in Swiss albino mice.
Male Swiss albino mice (SAM) were obtained from National Institute Nutrition (NIN) and housed in Dr. Reddy's Laboratories Ltd (DRL) animal house. All these animals are maintained under 12 hour light and dark cycle at 25±1° C. Animals were given standard laboratory chow (NIN, Hyderabad, India) and water, ad libitum. SAM of 20-25 grams body weight range were used. See Oliver, P., Plancke, M. O., Marzin, D., Clavey, V., Sauzieres, J and Fruchart, J. C. Effects of fenofibrate, gemfibrozil and nicotinic acid on plasma lipoprotein levels in normal and hyperlipidemic mice, Atherosclerosis. 1988. 70: 107-114, incorporated herein by reference in its entirety. The test compounds can be administered orally to Swiss albino mice at the dose mentioned in table for 6 days. Control mice were treated with vehicle 0.25% Carboxymethylcellulose (CMC; dose 10 ml/kg). The blood samples from the retro-orbital sinus through heparinised capillary in EDTA containing tubes were collected in fed state 1 hour after drug administration on 0 and 6 days of treatment. After centrifugation plasma was separated for triglyceride measurement using commercial kits. See Wieland, O. Methods of Enzymatic analysis. Bergermeyer, H. O., Ed., 1963. 211-214; Trinder, P. Ann. Clin. Biochem. 1969. 6: 24-27, incorporated herein by reference in its entirety. Percent reduction was calculated as per the formula given in Petit, D., Bonnefis, M. T., Rey, C. and Infante, R. Effects of ciprofibrate on liver lipids and lipoprotein synthesis in normo- and hyperlipidemic rats. Atherosclerosis. 1988. 74 : 215-225.

Series [5] relates to hypercholesterolemic rat model. As to the kind of experiment: plasma triglyceride and cholesterol lowering activity in hypercholesterolemic rat model. It counts as in vivo, Sprague Dawley rats. The note with it: hypercholesterolemic rats, 3.0 mg/kg orally for 3 days; for Reduction (%) LDL: LDL cholesterol calculated by formula; for ↑HDL: increase of plasma HDL (under head Reduction (%)); for Reduction (%) TC: plasma total cholesterol; for Reduction (%) TG: plasma triglyceride. Here is the method: The following procedure was used to determine plasma triglyceride and cholesterol lowering activity in hypercholesterolemic rat model.
Male Sprague Dawley rats (NIN stock) were bred in DRL animal house. Animals were maintained under 12 hour light and dark cycle at 25±1° C. Rats of 180-200 gram body weight range were used for the experiment. Animals are made hypercholesterolemic by feeding 2% cholesterol and 1% sodium cholate mixed with standard laboratory chow [National Institute of Nutrition (NIN), Hyderabad, India] for 6 days. Throughout the experimental period the animals were maintained on the same diet. The test compounds were administered orally at a dose mentioned in table for 3 days. Control group was treated with vehicle alone (0.25% CMC; 10 ml/kg). The blood samples were collected in fed state 1 hour after drug administration on 0 and 3 days of compound treatment. The blood was collected from the retro-orbital sinus through heparinised capillary in EDTA containing tubes. After centrifugation, plasma sample was separated for total cholesterol, HDL and triglyceride estimations. Measurement of plasma triglyceride, total cholesterol and HDL were done using commercial kits. LDL and VLDL cholesterol can be calculated from the data obtained for total cholesterol, HDL and triglyceride.
The percent reductions in blood sugar/triglycerides/total cholesterol were calculated according to the following formula:
OC=Zero day control group value
OT=Zero day treated group value
TC=Test day control group value
T=Test day treated group value.
The levels of LDL and VLDL cholesterol were calculated according to the formula:
VLDL cholesterol in mg/dl=[Total cholesterol-HDL cholesterol-LDL cholesterol] mg/dl.

In turn, `CCCc1nn(C)c2c(=O)n(CCOc3cccc(OC(C)(CC)C(=O)O)c3)c(C)nc12` (stereo not drawn) [Example 98, 2-{3-[2-(1,5-Dimethyl-7-oxo-3-propyl-1,7-dihydro-pyrazolo[4,3-d]pyrimidin-6-yl)-ethoxy]-phenoxy}-2-methyl-butyric acid] showed a melting point of 130 to 132 °C. Besides, the PPARα activation in series [1] (test compound at 1 μM) came out at 5.0. The PPARα activation in series [1] (test compound at 10 μM) came out at 5.7. The same compound registered a PPARδ activation in series [2] (test compound at 1 μM) of 0.6. The compound also came in with a PPARδ activation in series [2] (test compound at 10 μM) of 3.3. For the same compound, in series [3] (test compound at 1 μM), the PPARγ activation was 1.1(87.3). For the same compound, the PPARγ activation in series [3] (test compound at 10 μM) is recorded as 0.3(85.3). Moreover, in series [4], the “% reduction in TG” value turned out to be 65%. In series [5], the “Reduction (%) LDL” value is reported as 75%, the “↑HDL” value stood at 267%, the “Reduction (%) TC” value is recorded as 67% and the “Reduction (%) TG” value is recorded as 81%.

In turn, `CCCc1nn(C)c2c(=O)n(CCOc3cc(O[C@](C)(CC)C(=O)O)ccc3Cl)c(C)nc12` [Example 102, R-(+)-2-{4-Chloro-3-[2-(1,5-dimethyl-7-oxo-3-propyl-1,7-dihydro-pyrazolo[4,3-d]pyrimidin-6-yl)-ethoxy]-phenoxy}-2-methyl-butyric acid] yielded a melting point of 98 to 100 °C. In addition, the PPARα activation in series [1] (test compound at 1 μM) amounted to 3.9. The compound further registered a PPARα activation in series [1] (test compound at 10 μM) of 5.2. Moreover, in series [2] (test compound at 1 μM), the PPARδ activation was determined as 1.7. In series [2] (test compound at 10 μM), the PPARδ activation is 1.3. Besides, the “% reduction in TG” value in series [4] was found to be 67%. Also, in series [5], the “Reduction (%) LDL” value is 55%, the “↑HDL” value worked out at 45%, the “Reduction (%) TC” value was 51% and the “Reduction (%) TG” value was found to be 51%.

`CCCc1nn(C)c2c(=O)n(CCCc3ccc(OC(C)(CC)C(=O)O)cc3)c(C)nc12` (stereo not drawn) [Example 95, 2-{4-[3-(1,5-Dimethyl-7-oxo-3-propyl-1,7-dihydro-pyrazolo[4,3-d]pyrimidin-6-yl)-propyl]-phenoxy}-2-methyl-butyric acid] displayed a PPARα activation in series [1] (test compound at 1 μM) of 6.4. Also, the PPARα activation in series [1] (test compound at 10 μM) is listed as 7.3. The same compound registered a PPARδ activation in series [2] (test compound at 1 μM) of 0.1. Further, the PPARδ activation in series [2] (test compound at 10 μM) was found to be 4.0. Also, the PPARγ activation in series [3] (test compound at 1 μM) is given as 17.3(85.5). Further, the PPARγ activation in series [3] (test compound at 10 μM) is 36.6(110.3). Also, the “% reduction in TG” value in series [4] (3 mg/kg) is 63%. In addition, in series [5] (3 mg/kg), the “Reduction (%) LDL” value is 69%, the “↑HDL” value was determined as 212%, the “Reduction (%) TC” value is 64% and the “Reduction (%) TG” value is listed as 67%.

For the compound `CCCc1nn(C)c2c(=O)n(CCOc3cccc(OC(C)(C)C(=O)O)c3)c(C)nc12` [Example 89, 2-{3-[2-(1,5-Dimethyl-7-oxo-3-propyl-1,7-dihydro-pyrazolo[4,3-d]pyrimidin-6-yl)-ethoxy]-phenoxy}-2-methyl-propionic acid], the melting point fell in the range of 140 to 142 °C. The PPARα activation in series [1] (test compound at 1 μM) is on record as 2.1. In series [1] (test compound at 10 μM), this compound came in with a PPARα activation of 7.4. Besides, the PPARδ activation in series [2] (test compound at 1 μM) was found to be 0. Also, in series [2] (test compound at 10 μM), the PPARδ activation was determined as 0.4. For the same compound, the PPARγ activation in series [3] (test compound at 1 μM) is 0(54.5). In addition, the PPARγ activation in series [3] (test compound at 10 μM) was 0(62.8). Also, the “% reduction in TG” value in series [4] is reported as 60%. In series [5], the “Reduction (%) LDL” value is recorded as 68%, the “↑HDL” value is listed as 102%, the “Reduction (%) TC” value is 65% and the “Reduction (%) TG” value is reported as 68%.

One may read the melting point as the temperature of the solid-liquid transition.

Source of the values: US20080114005A1, “Fibrate Compounds Having Ppar Agonist Activity” (Dr. Reddy's Laboratories Limited, priority 2004, published 2008).
